Molecular target: T1, Cytochrome c (Cyt c) from equine / horse heart (Equus caballus, UniProt P00004)
T1 construct: gene CYCS; mature heme-containing protein
Assay: native ESI-MS, deconvoluted peak ratios
Type: binding
Settings: aqueous solution, 0.5 uM Cyt c, 3-7 uM ligand, room temperature, 1 h; stepwise constant of the 1:1 complex
Excerpt: native ESI-MS, deconvoluted peak ratios on Cytochrome c (Cyt c) from equine / horse heart

T1 sequence (P00004 2-105): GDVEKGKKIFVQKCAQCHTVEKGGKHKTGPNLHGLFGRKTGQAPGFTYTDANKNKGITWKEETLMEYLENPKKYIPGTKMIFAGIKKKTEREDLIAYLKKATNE

SMILES	Ka,1 (10^4 L mol^-1)
OC[C@H]1O[C@H](O[C@H]2[C@H](O)[C@@H](O)[C@@H](O[C@H]3[C@H](O)[C@@H](O)[C@@H](O[C@H]4[C@H](O)[C@@H](O)[C@@H](O[C@H]5[C@H](O)[C@@H](O)[C@@H](O[C@H]6[C@H](O)[C@@H](O)C(O)O[C@@H]6CO)O[C@@H]5CO)O[C@@H]4CO)O[C@@H]3CO)O[C@@H]2CO)[C@H](O)[C@@H](O)[C@@H]1O (stereo partly drawn) [Mal VI, maltohexaose]	2.438 x 10^4 (RSD 2.5%)
OC[C@H]1O[C@H](O[C@H]2[C@H](O)[C@@H](O)[C@@H](O[C@H]3[C@H](O)[C@@H](O)C(O)O[C@@H]3CO)O[C@@H]2CO)[C@H](O)[C@@H](O)[C@@H]1O (stereo partly drawn) [Mal III, maltotriose]	3.842 x 10^4 (RSD 2.5%)
OC[C@H]1O[C@H](O[C@H]2[C@H](O)[C@@H](O)[C@@H](O[C@H]3[C@H](O)[C@@H](O)[C@@H](O[C@H]4[C@H](O)[C@@H](O)[C@@H](O[C@H]5[C@H](O)[C@@H](O)C(O)O[C@@H]5CO)O[C@@H]4CO)O[C@@H]3CO)O[C@@H]2CO)[C@H](O)[C@@H](O)[C@@H]1O (stereo partly drawn) [Mal V, maltopentaose]	2.654 x 10^4 (RSD 0.80%)
OC[C@H]1O[C@H](O[C@H]2[C@H](O)[C@@H](O)[C@@H](O[C@H]3[C@H](O)[C@@H](O)[C@@H](O[C@H]4[C@H](O)[C@@H](O)[C@@H](O[C@H]5[C@H](O)[C@@H](O)[C@@H](O[C@H]6[C@H](O)[C@@H](O)[C@@H](O[C@H]7[C@H](O)[C@@H](O)C(O)O[C@@H]7CO)O[C@@H]6CO)O[C@@H]5CO)O[C@@H]4CO)O[C@@H]3CO)O[C@@H]2CO)[C@H](O)[C@@H](O)[C@@H]1O (stereo partly drawn) [Mal VII, maltoheptaose]	2.205 x 10^4 (RSD 1.6%)
OC[C@H]1O[C@H](O[C@H]2[C@H](O)[C@@H](O)[C@@H](O[C@H]3[C@H](O)[C@@H](O)[C@@H](O[C@H]4[C@H](O)[C@@H](O)C(O)O[C@@H]4CO)O[C@@H]3CO)O[C@@H]2CO)[C@H](O)[C@@H](O)[C@@H]1O (stereo partly drawn) [Mal IV, maltotetraose]	3.279 x 10^4 (RSD 5.6%)
OC[C@H]1O[C@H](O[C@H]2[C@H](O)[C@@H](O)C(O)O[C@@H]2CO)[C@H](O)[C@@H](O)[C@@H]1O (stereo partly drawn) [Mal II, maltose]	3.227 x 10^4 (RSD 2.9%)
